Measurements from ChEMBL document CHEMBL1201862, “PubChem BioAssay data set” (2004).
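Step 1: Grow cells in 96-well plates. Step 2: Expose to compound for 48 hours at 5 concentrations. Step 3: Interpolate endpoints linearly; if unreached, use highest concentration. GI50 is the concentration that inhibits growth by half.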 The source made the active and inactive calls. Cut-off read from the data, not from the text of the source: active = GI50 up to about 1.1 µM and inactive = higher.

How the values were obtained:
Assay in all cases: NCI anticancer screen, dose series, 48 h
Malme-3M = system: Malme-3M
MCF7 = system: MCF7
OVCAR-5 = system: OVCAR-5
OVCAR-3 = system: OVCAR-3
K562 = system: K562
M14 = system: M14
TK-10 = system: TK-10
HCT-15 = system: HCT-15
SF-295 = system: SF-295
KM12 = system: KM12
SNB-19 = system: SNB-19
A498 = system: A498
DU-145 = system: DU-145
UACC-257 = system: UACC-257
SR = system: SR
NCI/ADR-RES = system: NCI/ADR-RES
NCI-H522 = system: NCI-H522
OVCAR-8 = system: OVCAR-8
RXF 393 = system: RXF 393

Row | SMILES | GI50 (Malme-3M) | GI50 (MCF7) | GI50 (OVCAR-5) | GI50 (OVCAR-3) | GI50 (K562) | GI50 (M14) | GI50 (TK-10) | GI50 (HCT-15) | GI50 (SF-295) | GI50 (KM12) | GI50 (SNB-19) | GI50 (A498) | GI50 (DU-145) | GI50 (UACC-257) | GI50 (SR) | GI50 (NCI/ADR-RES) | GI50 (NCI-H522) | GI50 (OVCAR-8) | GI50 (RXF 393)
1 | S=C(NCCc1ccccn1)N/N=C(\c1ccccc1)c1ccccn1 | 0.0251 µM (active) | < 0.01 µM (active) | 7.82 µM (inactive) | 0.0989 µM (active) | < 0.01 µM (active) | 0.0378 µM (active) | 1.33 µM (inactive) | 0.0277 µM | 2.33 µM (inactive) | 2.76 µM (inactive) | 5.43 µM (inactive) | 0.211 µM (active) | 3.4 µM (inactive) | 0.113 µM (active) | 1.36 µM (inactive) | 0.0933 µM (active) | < 0.01 µM (active) | < 0.01 µM (active) | 2.4 µM (inactive)
2 | CCOC(=O)c1ncn(CCc2ccc(Cl)cc2)c1C | > 100 µM (inactive) | > 100 µM (inactive) | > 100 µM (inactive) | > 100 µM (inactive) | > 100 µM (inactive) | 26.3 µM (inactive) | > 100 µM (inactive) | > 100 µM | 70.8 µM (inactive) | > 100 µM (inactive) | > 100 µM (inactive) | > 100 µM (inactive) | > 100 µM (inactive) | > 100 µM (inactive) | 68.2 µM (inactive) | 70.8 µM (inactive) | 34.4 µM (inactive) | > 100 µM (inactive) | > 100 µM (inactive)
3 | C=C1C(C(=O)OC)[C@H]1C(=O)OC (stereo not given in full) |  | > 100 µM (inactive) | > 100 µM (inactive) | > 100 µM (inactive) |  | > 100 µM (inactive) | > 100 µM (inactive) | > 100 µM | > 100 µM (inactive) | > 100 µM (inactive) | > 100 µM (inactive) | > 100 µM (inactive) | > 100 µM (inactive) | > 100 µM (inactive) | > 100 µM (inactive) | > 100 µM (inactive) | > 100 µM (inactive) | > 100 µM (inactive) | > 100 µM (inactive)
4 | CC(C)=CCc1ccc2[nH]c3c(c2c1)C(=O)C(=O)C(C)=C3C(O)C(C)O (stereo not given) | 1.78 µM (inactive) | 1.63 µM (inactive) | 18.4 µM (inactive) | 2.96 µM (inactive) | 2.07 µM (inactive) | 1.91 µM (inactive) | 2.52 µM (inactive) | 2.32 µM | 12.2 µM (inactive) | 16.5 µM (inactive) | 17 µM (inactive) | 12.5 µM (inactive) | 10.5 µM (inactive) | 2.06 µM (inactive) | 2.45 µM (inactive) | 15.1 µM (inactive) | 1.69 µM (inactive) | 2.13 µM (inactive) | 2.17 µM (inactive)
5 | CC(=O)OCC(C)C1=C(O)C(=O)C2(C)C/C=C(/C)CC/C=C(\C)CCC(O)C(C)CCC12 (stereo not given) | 17.4 µM (inactive) | 24.9 µM (inactive) | 17.3 µM (inactive) | 15.1 µM (inactive) | 14.1 µM (inactive) | 17.8 µM (inactive) | 19.6 µM (inactive) | 17.6 µM | 15.6 µM (inactive) | 14.2 µM (inactive) | 18.4 µM (inactive) | 21.6 µM (inactive) | 17.9 µM (inactive) | 18.6 µM (inactive) | 7.89 µM (inactive) | 21.1 µM (inactive) | 17.3 µM (inactive) | 18.1 µM (inactive) | 12.3 µM (inactive)
6 | COc1cc(COC(=O)NC(Cc2cccs2)C(=O)O)c([N+](=O)[O-])cc1OC (stereo not given) | > 100 µM (inactive) | > 100 µM (inactive) | > 100 µM (inactive) | > 100 µM (inactive) | > 100 µM (inactive) | > 100 µM (inactive) | > 100 µM (inactive) | > 100 µM | > 100 µM (inactive) | > 100 µM (inactive) | > 100 µM (inactive) | 39.3 µM (inactive) | > 100 µM (inactive) | > 100 µM (inactive) | > 100 µM (inactive) | > 100 µM (inactive) |  | > 100 µM (inactive) | > 100 µM (inactive)
7 | CN(C)c1nc(N)nc(CS)n1 |  | > 100 µM (inactive) | > 100 µM (inactive) | > 100 µM (inactive) | 29.9 µM (inactive) | > 100 µM (inactive) | > 100 µM (inactive) | 56.4 µM | 52.4 µM (inactive) | > 100 µM (inactive) | > 100 µM (inactive) | > 100 µM (inactive) | > 100 µM (inactive) | > 100 µM (inactive) | 37.2 µM (inactive) | > 100 µM (inactive) | > 100 µM (inactive) | > 100 µM (inactive) | > 100 µM (inactive)
8 | CCN(CC)CCc1c2c(nc3ccccc13)C(=O)c1cccnc1C2=O | 2.02 µM (inactive) | 0.345 µM (active) | 4.63 µM (inactive) | 0.055 µM (active) | 1.16 µM (inactive) | 0.454 µM (active) | 2.66 µM (inactive) | 0.188 µM | 2.02 µM (inactive) | 0.857 µM (active) |  | 1.97 µM (inactive) | 0.344 µM (active) | 1.38 µM (inactive) | 0.211 µM (active) | 4.28 µM (inactive) | 0.731 µM (active) | 3.52 µM (inactive) | 2.37 µM (inactive)
9 | COc1ccc(C2CC(c3ccc4ccccc4c3O)=NN2)cc1OC (stereo not given) | 61.8 µM (inactive) | 32.7 µM (inactive) | > 100 µM (inactive) | 33.1 µM (inactive) | 21.7 µM (inactive) | 66.2 µM (inactive) | 95.1 µM (inactive) | 41.7 µM | 44.8 µM (inactive) | 48.4 µM (inactive) |  | 52.6 µM (inactive) | 77.6 µM (inactive) | 57.8 µM (inactive) | 15.6 µM (inactive) | 32.7 µM (inactive) | 40.1 µM (inactive) | 43.6 µM (inactive) | 74.1 µM (inactive)
10 | COc1cc2nc(-c3c(F)cccc3F)n(Cc3c(F)cccc3F)c2cc1Cc1c(F)cccc1F | > 24.8 µM (inactive) | 3.47 µM (inactive) | > 100 µM (inactive) | 4.73 µM (inactive) | > 28.6 µM (inactive) | > 24.3 µM (inactive) | > 100 µM (inactive) | > 100 µM | > 100 µM (inactive) | 3.77 µM (inactive) | > 100 µM (inactive) | 3.62 µM (inactive) | > 100 µM (inactive) |  | > 20.4 µM (inactive) | > 100 µM (inactive) | 10 µM (inactive) | > 100 µM (inactive) | 1.55 µM (inactive)
11 | O=C(CSCC(=O)N/N=C\c1cccc([N+](=O)[O-])c1)N/N=C\c1cccc([N+](=O)[O-])c1 | 21 µM (inactive) | 38.5 µM (inactive) |  | 22.9 µM (inactive) |  | > 100 µM (inactive) | 17.4 µM (inactive) | 25.5 µM | 11.5 µM (inactive) | > 100 µM (inactive) | 18 µM (inactive) | 41.1 µM (inactive) | 54.1 µM (inactive) | > 100 µM (inactive) | 69 µM (inactive) | 19.2 µM (inactive) | 43.8 µM (inactive) | 31.3 µM (inactive) | 49.8 µM (inactive)
